The values that follow come from patent US9636418B2 (priority 2013, dated 2017).

Each structure is given as a SMILES string. “And” between values parts separate entries of the source, which are not always exact repeats. Equal values may be shown once.

Holding throughout (assay): cell-based
One assay deals with hNav1.7 (Homo sapiens, UniProt Q15858). The following applies: IonWorks Quattro; read-out: IC50 Nav1.7. A general note: In patch-clamp work, channel activity is measured electrically.
In a further assay the target is hNav1.5 (Homo sapiens, UniProt Q14524). The following applies: IonWorks Quattro; read-out: IC50 Nav1.5.
The next assay addresses hNav1.4 (Homo sapiens, UniProt P35499). The following applies: for IC50: IonWorks Quattro, read-out: IC50 Nav1.4.
A further assay concerns the target hNav1.3 (Homo sapiens, UniProt Q9NY46). The following applies: IonWorks Quattro; read-out: IC50 Nav1.3.

Chain of hNav1.4 (P35499 whole entry): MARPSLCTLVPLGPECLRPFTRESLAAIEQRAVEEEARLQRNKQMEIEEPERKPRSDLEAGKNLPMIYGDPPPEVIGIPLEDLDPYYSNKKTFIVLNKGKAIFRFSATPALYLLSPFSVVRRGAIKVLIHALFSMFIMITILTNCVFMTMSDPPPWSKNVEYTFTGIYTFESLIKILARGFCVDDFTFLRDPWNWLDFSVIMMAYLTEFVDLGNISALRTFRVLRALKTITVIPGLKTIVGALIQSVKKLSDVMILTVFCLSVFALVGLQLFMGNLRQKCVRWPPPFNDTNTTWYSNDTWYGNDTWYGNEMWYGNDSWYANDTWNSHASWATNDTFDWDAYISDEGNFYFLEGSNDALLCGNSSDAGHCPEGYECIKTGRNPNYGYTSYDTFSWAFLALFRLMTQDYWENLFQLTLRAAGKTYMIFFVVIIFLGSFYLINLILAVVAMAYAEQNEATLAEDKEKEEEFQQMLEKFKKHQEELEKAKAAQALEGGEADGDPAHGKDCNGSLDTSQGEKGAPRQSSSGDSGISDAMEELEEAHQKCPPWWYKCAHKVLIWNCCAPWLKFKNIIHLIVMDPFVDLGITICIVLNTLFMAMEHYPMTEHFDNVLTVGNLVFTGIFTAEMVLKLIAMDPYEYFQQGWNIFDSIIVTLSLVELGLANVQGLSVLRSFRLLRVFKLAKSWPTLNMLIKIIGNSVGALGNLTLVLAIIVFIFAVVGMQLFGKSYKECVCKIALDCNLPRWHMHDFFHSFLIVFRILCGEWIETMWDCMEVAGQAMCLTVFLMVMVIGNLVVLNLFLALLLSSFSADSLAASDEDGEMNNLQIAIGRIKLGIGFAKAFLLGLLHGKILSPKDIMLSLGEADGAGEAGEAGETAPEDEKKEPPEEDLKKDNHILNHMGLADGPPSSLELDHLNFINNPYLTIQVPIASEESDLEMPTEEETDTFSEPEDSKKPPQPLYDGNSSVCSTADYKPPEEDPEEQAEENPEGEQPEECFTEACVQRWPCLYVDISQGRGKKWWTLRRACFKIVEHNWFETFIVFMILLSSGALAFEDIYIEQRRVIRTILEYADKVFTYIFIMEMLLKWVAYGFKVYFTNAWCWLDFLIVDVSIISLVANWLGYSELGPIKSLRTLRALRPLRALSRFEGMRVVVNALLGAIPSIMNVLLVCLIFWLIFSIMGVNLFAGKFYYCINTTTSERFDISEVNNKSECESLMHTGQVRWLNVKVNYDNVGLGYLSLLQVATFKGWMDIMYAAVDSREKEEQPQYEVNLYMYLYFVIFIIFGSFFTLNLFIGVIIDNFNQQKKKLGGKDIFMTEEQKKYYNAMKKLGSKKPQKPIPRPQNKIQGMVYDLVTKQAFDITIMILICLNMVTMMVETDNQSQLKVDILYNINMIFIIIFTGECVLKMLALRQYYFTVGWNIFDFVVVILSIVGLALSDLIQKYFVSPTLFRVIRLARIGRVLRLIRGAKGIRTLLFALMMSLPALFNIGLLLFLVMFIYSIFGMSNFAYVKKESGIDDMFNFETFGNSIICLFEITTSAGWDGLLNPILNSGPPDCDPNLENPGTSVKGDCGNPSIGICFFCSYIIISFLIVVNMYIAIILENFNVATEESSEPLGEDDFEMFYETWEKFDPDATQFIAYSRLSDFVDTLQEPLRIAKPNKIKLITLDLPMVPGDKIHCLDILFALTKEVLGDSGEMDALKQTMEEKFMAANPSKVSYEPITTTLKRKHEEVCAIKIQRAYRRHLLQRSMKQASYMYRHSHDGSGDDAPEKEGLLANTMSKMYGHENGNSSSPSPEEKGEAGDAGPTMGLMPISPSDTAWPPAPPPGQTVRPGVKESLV
Chain of hNav1.5 (Q14524 whole entry): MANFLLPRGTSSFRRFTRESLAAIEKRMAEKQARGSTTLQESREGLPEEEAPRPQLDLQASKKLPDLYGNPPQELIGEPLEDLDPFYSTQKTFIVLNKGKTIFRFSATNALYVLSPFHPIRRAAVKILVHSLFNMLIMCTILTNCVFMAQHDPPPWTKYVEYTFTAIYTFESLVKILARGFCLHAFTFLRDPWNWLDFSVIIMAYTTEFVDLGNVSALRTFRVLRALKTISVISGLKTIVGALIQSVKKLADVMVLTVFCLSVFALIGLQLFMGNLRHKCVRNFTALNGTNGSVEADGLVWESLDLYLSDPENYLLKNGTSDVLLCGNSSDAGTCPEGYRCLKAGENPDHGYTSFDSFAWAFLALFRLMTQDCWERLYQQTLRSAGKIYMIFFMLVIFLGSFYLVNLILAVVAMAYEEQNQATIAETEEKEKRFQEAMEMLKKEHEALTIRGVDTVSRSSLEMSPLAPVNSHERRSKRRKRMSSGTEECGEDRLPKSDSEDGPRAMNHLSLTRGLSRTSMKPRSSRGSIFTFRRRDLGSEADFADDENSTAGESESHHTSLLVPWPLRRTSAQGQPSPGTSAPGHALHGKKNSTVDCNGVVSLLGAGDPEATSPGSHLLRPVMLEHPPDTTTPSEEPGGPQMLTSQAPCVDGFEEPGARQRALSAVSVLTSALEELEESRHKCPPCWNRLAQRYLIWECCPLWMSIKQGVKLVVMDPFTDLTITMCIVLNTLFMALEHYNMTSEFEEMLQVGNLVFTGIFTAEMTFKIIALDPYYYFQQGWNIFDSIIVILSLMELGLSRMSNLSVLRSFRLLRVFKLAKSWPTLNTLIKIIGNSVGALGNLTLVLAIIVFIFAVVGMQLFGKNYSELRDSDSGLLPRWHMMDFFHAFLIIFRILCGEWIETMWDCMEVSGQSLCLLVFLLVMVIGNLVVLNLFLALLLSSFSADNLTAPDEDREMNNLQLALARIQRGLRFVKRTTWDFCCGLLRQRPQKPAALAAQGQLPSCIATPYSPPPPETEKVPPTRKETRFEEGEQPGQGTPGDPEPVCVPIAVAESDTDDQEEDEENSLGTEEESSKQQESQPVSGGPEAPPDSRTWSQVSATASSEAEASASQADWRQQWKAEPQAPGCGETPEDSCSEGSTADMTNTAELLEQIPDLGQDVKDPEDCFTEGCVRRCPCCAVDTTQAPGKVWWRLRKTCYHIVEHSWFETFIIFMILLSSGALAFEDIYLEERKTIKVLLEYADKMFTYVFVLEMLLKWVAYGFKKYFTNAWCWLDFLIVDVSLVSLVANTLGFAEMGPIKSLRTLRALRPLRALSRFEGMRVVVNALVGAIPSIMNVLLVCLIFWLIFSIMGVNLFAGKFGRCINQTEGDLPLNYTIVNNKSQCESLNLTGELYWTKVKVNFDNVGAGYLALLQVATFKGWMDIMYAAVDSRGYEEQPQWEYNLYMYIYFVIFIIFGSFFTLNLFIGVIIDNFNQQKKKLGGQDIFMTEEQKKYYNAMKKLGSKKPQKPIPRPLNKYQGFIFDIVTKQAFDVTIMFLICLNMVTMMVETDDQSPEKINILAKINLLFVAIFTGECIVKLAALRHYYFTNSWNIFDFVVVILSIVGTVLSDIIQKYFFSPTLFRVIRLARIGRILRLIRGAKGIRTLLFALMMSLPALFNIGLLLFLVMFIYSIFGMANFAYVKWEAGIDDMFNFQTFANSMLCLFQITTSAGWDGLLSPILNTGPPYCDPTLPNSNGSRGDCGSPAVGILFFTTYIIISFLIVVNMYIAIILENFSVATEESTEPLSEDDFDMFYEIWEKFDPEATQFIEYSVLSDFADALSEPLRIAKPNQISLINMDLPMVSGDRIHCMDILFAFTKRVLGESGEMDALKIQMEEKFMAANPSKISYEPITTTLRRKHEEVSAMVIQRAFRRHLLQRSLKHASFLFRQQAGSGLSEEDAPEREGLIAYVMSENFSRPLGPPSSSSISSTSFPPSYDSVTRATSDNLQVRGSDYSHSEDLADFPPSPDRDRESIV

As a reminder, the IC50 is the concentration that inhibits the measured activity by half. On to `CC[C@H](C)[C@H](NC(=O)[C@H](Cc1ccc(O)cc1)NC(=O)[C@H](CCCCN)NC(=O)[C@H](CCCNC(=N)N)NC(=O)[C@@H]1CSSC[C@@H]2NC(=O)[C@H](C)NC(=O)[C@H](CCCNC(=N)N)NC(=O)[C@H](CCCCN)NC(=O)[C@H](CO)NC(=O)[C@H](CC(=O)O)NC(=O)[C@@H]3CSSC[C@H](NC(=O)[C@H](CCC(=O)O)NC(=O)[C@H](CC(C)C)NC(=O)CNC(=O)[C@H](CCC(=O)O)NC(=O)[C@H](CSSC[C@H](NC(=O)[C@@H](N)Cc4ccc(O)cc4)C(=O)N[C@@H](CCC(N)=O)C(=O)N[C@@H](CCCCN)C(=O)N[C@@H](Cc4c[nH]c5ccccc45)C(=O)N[C@@H](CCSC)C(=O)N[C@@H](CCCNC(N)=O)C(=O)N[C@@H]([C@@H](C)O)C(=O)N3)NC2=O)C(=O)N[C@@H](CCCCN)C(=O)N[C@@H](CC(C)C)C(=O)N[C@@H](Cc2c[nH]c3ccccc23)C(=O)N1)C(N)=O` [compound 213], for which the IC50 on hNav1.7 is 5.8 µM; on hNav1.5, more than 7 µM; on hNav1.4, more than 7 µM; at hNav1.3, more than 7 µM.
With `CC[C@H](C)[C@H](NC(=O)[C@H](Cc1ccc(O)cc1)NC(=O)[C@H](CCCCN)NC(=O)[C@H](CCCNC(=N)N)NC(=O)[C@@H]1CSSC[C@@H]2NC(=O)[C@H](C)NC(=O)[C@H](CCCNC(=N)N)NC(=O)[C@H](CCCCN)NC(=O)[C@H](CO)NC(=O)[C@H](CC(=O)O)NC(=O)[C@@H]3CSSC[C@H](NC(=O)[C@H](CCC(=O)O)NC(=O)[C@H](CC(C)C)NC(=O)CNC(=O)[C@H](CCC(=O)O)NC(=O)[C@H](CSSC[C@H](NC(=O)[C@@H](N)Cc4ccc(O)cc4)C(=O)N[C@@H](CCC(N)=O)C(=O)N[C@@H](CCCCN)C(=O)N[C@@H](Cc4c[nH]c5ccccc45)C(=O)N[C@@H](CCSC)C(=O)N[C@@H](CCCCN)C(=O)N[C@@H]([C@@H](C)O)C(=O)N3)NC2=O)C(=O)N[C@@H](CCCCN)C(=O)N[C@@H](CC(C)C)C(=O)N[C@@H](Cc2c[nH]c3ccccc23)C(=O)N1)C(N)=O` [compound 214], the IC50 was 2.7 µM at hNav1.7, more than 7 µM at hNav1.5, more than 7 µM at hNav1.4 and more than 7 µM on hNav1.3.
For the compound `CC[C@H](C)[C@H](NC(=O)[C@H](Cc1ccc(O)cc1)NC(=O)[C@H](CCCCN)NC(=O)[C@H](CCCNC(=N)N)NC(=O)[C@@H]1CSSC[C@@H]2NC(=O)[C@H](C)NC(=O)[C@H](CCCNC(=N)N)NC(=O)[C@H](CCCCN)NC(=O)[C@H](CO)NC(=O)[C@H](CC(=O)O)NC(=O)[C@@H]3CSSC[C@H](NC(=O)[C@H](CCC(=O)O)NC(=O)[C@H](CC(C)C)NC(=O)CNC(=O)[C@H](CCC(=O)O)NC(=O)[C@H](CSSC[C@H](NC(=O)[C@@H](N)Cc4ccc(O)cc4)C(=O)N[C@@H](CCC(N)=O)C(=O)N[C@@H](CCCCN)C(=O)N[C@@H](Cc4c[nH]c5ccccc45)C(=O)N[C@@H](CCSC)C(=O)N[C@@H](CC(N)=O)C(=O)N[C@@H]([C@@H](C)O)C(=O)N3)NC2=O)C(=O)N[C@@H](CCCCN)C(=O)N[C@@H](CC(C)C)C(=O)N[C@@H](Cc2c[nH]c3ccccc23)C(=O)N1)C(N)=O` [compound 215], the half-inhibitory concentration (IC50) was 5 µM at hNav1.7, more than 7 µM on hNav1.5, 6.1 µM on hNav1.4 and more than 7 µM on hNav1.3. The Nav1.4/Nav1.7 at hNav1.4 (ratio of IonWorks Quattro IC50 values) amounted to 1.
With `CC[C@H](C)[C@H](NC(=O)[C@H](Cc1ccc(O)cc1)NC(=O)[C@H](CCCCN)NC(=O)[C@H](CCCNC(=N)N)NC(=O)[C@@H]1CSSC[C@@H]2NC(=O)[C@H](C)NC(=O)[C@H](CCCNC(=N)N)NC(=O)[C@H](CCCCN)NC(=O)[C@H](CO)NC(=O)[C@H](CC(=O)O)NC(=O)[C@@H]3CSSC[C@H](NC(=O)[C@H](CCC(=O)O)NC(=O)[C@H](CC(C)C)NC(=O)CNC(=O)[C@H](CCC(=O)O)NC(=O)[C@H](CSSC[C@H](NC(=O)[C@@H](N)Cc4ccc(O)cc4)C(=O)N[C@@H](CCC(N)=O)C(=O)N[C@@H](CCCCN)C(=O)N[C@@H](Cc4c[nH]c5ccccc45)C(=O)N[C@@H](CCSC)C(=O)N[C@@H](CO)C(=O)N[C@@H]([C@@H](C)O)C(=O)N3)NC2=O)C(=O)N[C@@H](CCCCN)C(=O)N[C@@H](CC(C)C)C(=O)N[C@@H](Cc2c[nH]c3ccccc23)C(=O)N1)C(N)=O` [compound 216], the concentration for half-maximal inhibition (IC50) at hNav1.7 is 4.7 µM and 6.6 µM; at hNav1.5, > 7 µM and 5.4 µM; at hNav1.4 it was more than 7 µM; on hNav1.3, more than 7 µM.
Turning to `CC[C@H](C)[C@H](NC(=O)[C@H](Cc1ccc(O)cc1)NC(=O)[C@H](CCCCN)NC(=O)[C@H](CCCNC(=N)N)NC(=O)[C@@H]1CSSC[C@@H]2NC(=O)[C@H](C)NC(=O)[C@H](CCCNC(=N)N)NC(=O)[C@H](CCCCN)NC(=O)[C@H](CO)NC(=O)[C@H](CC(=O)O)NC(=O)[C@@H]3CSSC[C@H](NC(=O)[C@H](CCC(=O)O)NC(=O)[C@H](CC(C)C)NC(=O)CNC(=O)[C@H](CCC(=O)O)NC(=O)[C@H](CSSC[C@H](NC(=O)[C@@H](N)Cc4ccc(O)cc4)C(=O)N[C@@H](CCC(N)=O)C(=O)N[C@@H](CCCCN)C(=O)N[C@@H](Cc4c[nH]c5ccccc45)C(=O)N[C@@H](CCSC)C(=O)N[C@@H](CCC(=O)O)C(=O)N[C@@H]([C@@H](C)O)C(=O)N3)NC2=O)C(=O)N[C@@H](CCCCN)C(=O)N[C@@H](CC(C)C)C(=O)N[C@@H](Cc2c[nH]c3ccccc23)C(=O)N1)C(N)=O` [compound 217], the IC50 on hNav1.7, on hNav1.5, at hNav1.4 and on hNav1.3 was more than 7 µM each time.
With `CC[C@H](C)[C@H](NC(=O)[C@H](Cc1ccc(O)cc1)NC(=O)[C@H](CCCCN)NC(=O)[C@H](CCCNC(=N)N)NC(=O)[C@@H]1CSSC[C@@H]2NC(=O)[C@H](C)NC(=O)[C@H](CCCNC(=N)N)NC(=O)[C@H](CCCCN)NC(=O)[C@H](CO)NC(=O)[C@H](CC(=O)O)NC(=O)[C@@H]3CSSC[C@H](NC(=O)[C@H](CCC(=O)O)NC(=O)[C@H](CC(C)C)NC(=O)CNC(=O)[C@H](CCC(=O)O)NC(=O)[C@H](CSSC[C@H](NC(=O)[C@@H](N)Cc4ccc(O)cc4)C(=O)N[C@@H](CCC(N)=O)C(=O)N[C@@H](CCCCN)C(=O)N[C@@H](Cc4c[nH]c5ccccc45)C(=O)N[C@@H](CCSC)C(=O)N[C@@H](Cc4c[nH]c5ccccc45)C(=O)N[C@@H]([C@@H](C)O)C(=O)N3)NC2=O)C(=O)N[C@@H](CCCCN)C(=O)N[C@@H](CC(C)C)C(=O)N[C@@H](Cc2ccc3ccccc3c2)C(=O)N1)C(N)=O` [compound 219], the IC50 on hNav1.7 is 0.86 µM and 1 µM; at hNav1.5, more than 7 µM; at hNav1.4, more than 7 µM; at hNav1.3, more than 7 µM.
`CC[C@H](C)[C@H](NC(=O)[C@H](Cc1ccc(O)cc1)NC(=O)[C@H](CCCCN)NC(=O)[C@H](CCCNC(=N)N)NC(=O)[C@@H]1CSSC[C@@H]2NC(=O)[C@H](C)NC(=O)[C@H](CCCNC(=N)N)NC(=O)[C@H](CCCCN)NC(=O)[C@H](CO)NC(=O)[C@H](CC(=O)O)NC(=O)[C@@H]3CSSC[C@H](NC(=O)[C@H](CCC(=O)O)NC(=O)[C@H](CC(C)C)NC(=O)CNC(=O)[C@H](CCC(=O)O)NC(=O)[C@H](CSSC[C@H](NC(=O)[C@@H](N)Cc4ccc(O)cc4)C(=O)N[C@@H](CCC(N)=O)C(=O)N[C@@H](CCCCN)C(=O)N[C@@H](Cc4c[nH]c5ccccc45)C(=O)N[C@@H](CCSC)C(=O)N[C@@H](Cc4c[nH]c5ccccc45)C(=O)N[C@@H]([C@@H](C)O)C(=O)N3)NC2=O)C(=O)N[C@@H](CCCCN)C(=O)N[C@@H](CC(C)C)C(=O)N[C@@H](C(C)C)C(=O)N1)C(N)=O` [compound 223]: the half-maximal inhibitory concentration (IC50) at hNav1.7, on hNav1.5, on hNav1.4 and at hNav1.3 was more than 5 µM throughout.
With `CC[C@H](C)[C@H](NC(=O)[C@H](Cc1ccc(O)cc1)NC(=O)[C@H](CCCCN)NC(=O)[C@H](CCCNC(=N)N)NC(=O)[C@@H]1CSSC[C@@H]2NC(=O)[C@H](C)NC(=O)[C@H](CCCNC(=N)N)NC(=O)[C@H](CCCCN)NC(=O)[C@H](CO)NC(=O)[C@H](CC(=O)O)NC(=O)[C@@H]3CSSC[C@H](NC(=O)[C@H](CCC(=O)O)NC(=O)[C@H](CC(C)C)NC(=O)CNC(=O)[C@H](CCC(=O)O)NC(=O)[C@H](CSSC[C@H](NC(=O)[C@@H](N)Cc4ccc(O)cc4)C(=O)N[C@@H](CCC(N)=O)C(=O)N[C@@H](CCCCN)C(=O)N[C@@H](Cc4c[nH]c5ccccc45)C(=O)N[C@@H](CCSC)C(=O)N[C@@H](Cc4c[nH]c5ccccc45)C(=O)N[C@@H]([C@@H](C)O)C(=O)N3)NC2=O)C(=O)N[C@@H](CCCCN)C(=O)N[C@@H](CC(C)C)C(=O)N[C@@H](CC(C)C)C(=O)N1)C(N)=O` [compound 224], the IC50 on hNav1.7, at hNav1.5, at hNav1.4 and on hNav1.3 was more than 5 µM in each case.
Consider `CCCC[C@@H]1NC(=O)[C@H](CC(C)C)NC(=O)[C@H](CCCCN)NC(=O)[C@@H]2CSSC[C@@H]3NC(=O)[C@H]([C@@H](C)O)NC(=O)[C@H](Cc4c[nH]c5ccccc45)NC(=O)[C@H](CCSC)NC(=O)[C@H](Cc4c[nH]c5ccccc45)NC(=O)[C@H](CCCCN)NC(=O)[C@H](CCC(N)=O)NC(=O)[C@@H](NC(=O)[C@@H](N)Cc4ccc(O)cc4)CSSC[C@H](NC(=O)[C@H](CSSC[C@@H](C(=O)N[C@@H](CCCNC(=N)N)C(=O)N[C@@H](CCCCN)C(=O)N[C@@H](Cc4ccc(O)cc4)C(=O)N[C@H](C(N)=O)[C@@H](C)CC)NC1=O)NC(=O)[C@H](C)NC(=O)[C@H](CCCNC(=N)N)NC(=O)[C@H](CCCCN)NC(=O)[C@H](CO)NC(=O)[C@H](CC(=O)O)NC3=O)C(=O)N[C@@H](CCC(=O)O)C(=O)NCC(=O)N[C@@H](CC(C)C)C(=O)N[C@@H](CCC(=O)O)C(=O)N2` [compound 225], for which the IC50 at hNav1.7, on hNav1.5, at hNav1.4 and at hNav1.3 was more than 5 µM throughout.
